Measured values as given in ChEMBL document CHEMBL3272130, “Synthesis and hypotensive activity of some cyclopentano-1,2,3,4-tetrahydroisoquinolines” (J Med Chem, 1977).

Key:
[1] = Toxicity in ip dosed Swiss-Webster mouse after 24 hrs; assay type: organism-based; conditions: in vivo
Rattus norvegicus [2] = experiment: Hypotensive activity in deoxycorticosterone acetate treated hypertensive CD rat assessed as change in blood pressure at 100 mg, ip after 1 hr relative to control; assay type: functional
Rattus norvegicus [3] = experiment: Hypotensive activity in deoxycorticosterone acetate treated hypertensive CD rat assessed as change in blood pressure at 100 mg, ip after 4 hrs relative to control; assay type: functional
Rattus norvegicus [4] = experiment: Cardiovascular activity in deoxycorticosterone acetate treated hypertensive CD rat assessed as change in heart rate at 100 mg, ip after 2 hrs relative to control; assay type: ADME, organism-based; conditions: in vivo
Rattus norvegicus [5] = experiment: Hypotensive activity in deoxycorticosterone acetate treated hypertensive CD rat assessed as change in blood pressure at 100 mg, ip after 2 hrs relative to control; assay type: functional
Rattus norvegicus [6] = experiment: Cardiovascular activity in deoxycorticosterone acetate treated hypertensive CD rat assessed as change in heart rate at 100 mg, ip after 1 hr relative to control; assay type: ADME, organism-based; conditions: in vivo
Rattus norvegicus [7] = experiment: Cardiovascular activity in deoxycorticosterone acetate treated hypertensive CD rat assessed as change in heart rate at 100 mg, ip after 4 hrs relative to control; assay type: ADME, organism-based; conditions: in vivo
Rattus norvegicus [8] = experiment: Hypotensive activity in deoxycorticosterone acetate treated hypertensive CD rat assessed as change in blood pressure at 100 mg, ip after 24 hrs relative to control; assay type: functional
Rattus norvegicus [9] = experiment: Cardiovascular activity in deoxycorticosterone acetate treated hypertensive CD rat assessed as change in heart rate at 100 mg, ip after 24 hrs relative to control; assay type: ADME, organism-based; conditions: in vivo
Rattus norvegicus [10] = experiment: Cardiovascular activity in deoxycorticosterone acetate treated hypertensive CD rat assessed as change in heart rate at 50 mg, ip after 24 hrs relative to control; assay type: ADME, organism-based; conditions: in vivo
Rattus norvegicus [11] = experiment: Hypotensive activity in deoxycorticosterone acetate treated hypertensive CD rat assessed as change in blood pressure at 50 mg, ip after 1 hr relative to control; assay type: functional
Rattus norvegicus [12] = experiment: Cardiovascular activity in deoxycorticosterone acetate treated hypertensive CD rat assessed as change in heart rate at 50 mg, ip after 1 hr relative to control; assay type: ADME, organism-based; conditions: in vivo
Rattus norvegicus [13] = experiment: Hypotensive activity in deoxycorticosterone acetate treated hypertensive CD rat assessed as change in blood pressure at 50 mg, ip after 24 hrs relative to control; assay type: functional
Rattus norvegicus [14] = experiment: Hypotensive activity in deoxycorticosterone acetate treated hypertensive CD rat assessed as change in blood pressure at 50 mg, ip after 2 hrs relative to control; assay type: functional
Rattus norvegicus [15] = experiment: Cardiovascular activity in deoxycorticosterone acetate treated hypertensive CD rat assessed as change in heart rate at 50 mg, ip after 2 hrs relative to control; assay type: ADME, organism-based; conditions: in vivo
Rattus norvegicus [16] = experiment: Hypotensive activity in deoxycorticosterone acetate treated hypertensive CD rat assessed as change in blood pressure at 50 mg, ip after 4 hrs relative to control; assay type: functional
Rattus norvegicus [17] = experiment: Cardiovascular activity in deoxycorticosterone acetate treated hypertensive CD rat assessed as change in heart rate at 50 mg, ip after 4 hrs relative to control; assay type: ADME, organism-based; conditions: in vivo
Rattus norvegicus [18] = experiment: Cardiovascular activity in deoxycorticosterone acetate treated hypertensive CD rat assessed as change in heart rate at 20 mg, ip after 1 hr relative to control; assay type: ADME, organism-based; conditions: in vivo
Rattus norvegicus [19] = experiment: Cardiovascular activity in deoxycorticosterone acetate treated hypertensive CD rat assessed as change in heart rate at 20 mg, ip after 24 hrs relative to control; assay type: ADME, organism-based; conditions: in vivo
Rattus norvegicus [20] = experiment: Cardiovascular activity in deoxycorticosterone acetate treated hypertensive CD rat assessed as change in heart rate at 20 mg, ip after 2 hrs relative to control; assay type: ADME, organism-based; conditions: in vivo
Rattus norvegicus [21] = experiment: Cardiovascular activity in deoxycorticosterone acetate treated hypertensive CD rat assessed as change in heart rate at 20 mg, ip after 4 hrs relative to control; assay type: ADME, organism-based; conditions: in vivo
Rattus norvegicus [22] = experiment: Hypotensive activity in deoxycorticosterone acetate treated hypertensive CD rat assessed as change in blood pressure at 20 mg, ip after 4 hrs relative to control; assay type: functional
Rattus norvegicus [23] = experiment: Hypotensive activity in deoxycorticosterone acetate treated hypertensive CD rat assessed as change in blood pressure at 20 mg, ip after 1 hr relative to control; assay type: functional
Rattus norvegicus [24] = experiment: Hypotensive activity in deoxycorticosterone acetate treated hypertensive CD rat assessed as change in blood pressure at 20 mg, ip after 24 hrs relative to control; assay type: functional
Rattus norvegicus [25] = experiment: Hypotensive activity in deoxycorticosterone acetate treated hypertensive CD rat assessed as change in blood pressure at 20 mg, ip after 2 hrs relative to control; assay type: functional

SMILES	LD50 at 24 h [1]	Activity (Rattus norvegicus [10])	Activity (Rattus norvegicus [11])	Activity (Rattus norvegicus [12])	Activity (Rattus norvegicus [13])	Activity (Rattus norvegicus [14])	Activity (Rattus norvegicus [15])	Activity (Rattus norvegicus [16])	Activity (Rattus norvegicus [17])	further results
COc1c2c(c3c(c1OC)CCN(CC(c1ccccc1)c1ccccc1)C3)CCC2	> 1000 mg/kg	–	–	–	–	–	–	–	–	Activity (Rattus norvegicus [2]): -5%; Activity (Rattus norvegicus [3]): -2%; Activity (Rattus norvegicus [4]): 25.4%; Activity (Rattus norvegicus [5]): -3.4%; Activity (Rattus norvegicus [6]): 18.5%; Activity (Rattus norvegicus [7]): 8.6%; Activity (Rattus norvegicus [8]): 4%; Activity (Rattus norvegicus [9]): -0.5%
Br.CN1CCc2c(O)c(O)c3c(c2C1)CCC3	160 mg/kg	-8.6%	-9.1%	-1.9%	-8.6%	-3.5%	5.1%	-5.7%	4.6%	–
C[C@](N)(Cc1ccc(O)c(O)c1)C(=O)O [METHYLDOPA]	–	-19.3%	-31%	106.2%	-16.5%	-50%	104.1%	-47.7%	31%	–
COc1ccc(CC(=O)N2CCc3c4c(c(OC)c(OC)c3C2)CCC4)cc1OC	160 mg/kg	–	–	–	–	–	–	–	–	Activity (Rattus norvegicus [18]): 1.9%; Activity (Rattus norvegicus [19]): -6.7%; Activity (Rattus norvegicus [20]): 1.8%; Activity (Rattus norvegicus [21]): 1.3%; Activity (Rattus norvegicus [22]): -6.3%; Activity (Rattus norvegicus [23]): 5.4%; Activity (Rattus norvegicus [24]): -3.1%; Activity (Rattus norvegicus [25]): -3.9%
Br.COc1ccc(CCN2CCc3c4c(c(OC)c(OC)c3C2)CCC4)cc1OC	125 mg/kg	2.4%	-26%	22%	-2.8%	-11.3%	17.6%	-6.6%	5.4%	–
COc1ccc(CN2CCc3c4c(c(OC)c(OC)c3C2)CCC4)cc1OC.Cl	141 mg/kg	-1.3%	-8.8%	13%	0.9%	-4.2%	9%	-0.7%	10.2%	–
Br.COc1c2c(c3c(c1OC)CN(C)CC3)CCC2	100 mg/kg	-3.8%	-3%	-8.7%	-4.6%	-2.9%	-4.4%	-6.3%	1.6%	Activity (Rattus norvegicus [18]): 3.5%; Activity (Rattus norvegicus [19]): 1.5%; Activity (Rattus norvegicus [20]): 9.2%; Activity (Rattus norvegicus [21]): 8.5%; Activity (Rattus norvegicus [22]): -4.2%; Activity (Rattus norvegicus [23]): 6.3%; Activity (Rattus norvegicus [24]): -2.9%; Activity (Rattus norvegicus [25]): 5.5%
CC(=O)Oc1c2c(c3c(c1OC(C)=O)CCN(C)C3)CCC2	150 mg/kg	–	–	–	–	–	–	–	–	–
COc1c2c(c3c(c1OC)CN(CCC(c1ccccc1)c1ccccc1)CC3)CCC2	1000 mg/kg	–	–	–	–	–	–	–	–	Activity (Rattus norvegicus [2]): -3.5%; Activity (Rattus norvegicus [3]): -6.7%; Activity (Rattus norvegicus [4]): 4.6%; Activity (Rattus norvegicus [5]): -7.9%; Activity (Rattus norvegicus [6]): 4%; Activity (Rattus norvegicus [7]): 0.8%; Activity (Rattus norvegicus [8]): -7%; Activity (Rattus norvegicus [9]): 0.6%
COc1ccc(C(=O)N2CCc3c(c4c(c(OC)c3OC)CCC4)C2)cc1OC	> 1000 mg/kg	–	–	–	–	–	–	–	–	Activity (Rattus norvegicus [2]): -12.1%; Activity (Rattus norvegicus [3]): -3.4%; Activity (Rattus norvegicus [4]): 3.4%; Activity (Rattus norvegicus [5]): -8.8%; Activity (Rattus norvegicus [6]): 0.2%; Activity (Rattus norvegicus [7]): -1.2%; Activity (Rattus norvegicus [8]): -6%; Activity (Rattus norvegicus [9]): -6.5%
Br.COc1ccc(CCN2CCc3c(c4c(c(OC)c3OC)CCC4)C2)cc1OC	100 mg/kg	–	–	–	–	–	–	–	–	–
Br.COc1ccc(CN2CCc3c(c4c(c(OC)c3OC)CCC4)C2)cc1OC	200 mg/kg	-9.1%	-8.4%	0.4%	3.3%	-2.4%	0.4%	-1%	1%	–
COc1ccc(C(=O)N2CCc3c4c(c(OC)c(OC)c3C2)CCC4)cc1OC	150 mg/kg	–	–	–	–	–	–	–	–	Activity (Rattus norvegicus [18]): 3.8%; Activity (Rattus norvegicus [19]): 5.7%; Activity (Rattus norvegicus [20]): 8.9%; Activity (Rattus norvegicus [21]): 2.2%; Activity (Rattus norvegicus [22]): -3.1%; Activity (Rattus norvegicus [23]): -4%; Activity (Rattus norvegicus [24]): 5.6%; Activity (Rattus norvegicus [25]): -1.4%
Br.CN1CCc2c(c(O)c(O)c3c2CCC3)C1	150 mg/kg	3%	-1.1%	8.2%	-3.6%	2.6%	4.8%	3%	4.1%	–
CC(=O)Oc1c2c(c3c(c1OC(C)=O)CN(C)CC3)CCC2.O=C(O)C(F)(F)F	200 mg/kg	0.3%	-13.1%	14.6%	-5.1%	5.2%	7.3%	-0.6%	2.6%	–
COc1c2c(c3c(c1OC)CN(CC(c1ccccc1)c1ccccc1)CC3)CCC2	> 1000 mg/kg	–	–	–	–	–	–	–	–	Activity (Rattus norvegicus [2]): -10.7%; Activity (Rattus norvegicus [18]): 7.4%; Activity (Rattus norvegicus [3]): -11.2%; Activity (Rattus norvegicus [19]): -5%; Activity (Rattus norvegicus [4]): 2.4%; Activity (Rattus norvegicus [20]): 10.7%; Activity (Rattus norvegicus [5]): -12.7%; Activity (Rattus norvegicus [21]): 0.8%; Activity (Rattus norvegicus [6]): 8.7%; Activity (Rattus norvegicus [22]): -2.9%; Activity (Rattus norvegicus [7]): 2.4%; Activity (Rattus norvegicus [23]): 1.4%; Activity (Rattus norvegicus [8]): -3.6%; Activity (Rattus norvegicus [24]): -3%; Activity (Rattus norvegicus [25]): 1.1%; Activity (Rattus norvegicus [9]): -2.4%
COc1c2c(c3c(c1OC)CCN(C(=O)C(c1ccccc1)c1ccccc1)C3)CCC2	200 mg/kg	–	–	–	–	–	–	–	–	–
COc1c2c(c3c(c1OC)CN(C(=O)CC(c1ccccc1)c1ccccc1)CC3)CCC2	100 mg/kg	–	–	–	–	–	–	–	–	Activity (Rattus norvegicus [18]): 16.8%; Activity (Rattus norvegicus [19]): -1.8%; Activity (Rattus norvegicus [20]): 15.8%; Activity (Rattus norvegicus [21]): 2.4%; Activity (Rattus norvegicus [22]): -5%; Activity (Rattus norvegicus [23]): -4.4%; Activity (Rattus norvegicus [24]): -2.1%; Activity (Rattus norvegicus [25]): -6.9%
COc1ccc(CC(=O)N2CCc3c(c4c(c(OC)c3OC)CCC4)C2)cc1OC	500 mg/kg	–	–	–	–	–	–	–	–	–
